Assay results as given in article PMC3169616, “Unique Residues Involved in Activation of the Multitasking Protease/Chaperone HtrA from Chlamydia trachomatis” (PLoS ONE, 2011).
No end group written: not given here. *: point of attachment. pNA = O=[N+]([O-])c1ccc(N*)cc1

Columns and labels:
[1] = target: T1, CtHtrA (Chlamydia trachomatis serovar D, UniProt P18584); experiment: Protease assay and kinetic analysis with pNA-labelled peptide substrates; type: biochemical; conditions: pNA peptide as substrate, absorbance 405 nm, 37°C; for Vmax: reading every 10 s for 30 min
T1 construct: His-tag; made in house; host or cells: E. coli BL21 (DE3), plasmid pETHtrA
T1 sequence (P18584 17-497): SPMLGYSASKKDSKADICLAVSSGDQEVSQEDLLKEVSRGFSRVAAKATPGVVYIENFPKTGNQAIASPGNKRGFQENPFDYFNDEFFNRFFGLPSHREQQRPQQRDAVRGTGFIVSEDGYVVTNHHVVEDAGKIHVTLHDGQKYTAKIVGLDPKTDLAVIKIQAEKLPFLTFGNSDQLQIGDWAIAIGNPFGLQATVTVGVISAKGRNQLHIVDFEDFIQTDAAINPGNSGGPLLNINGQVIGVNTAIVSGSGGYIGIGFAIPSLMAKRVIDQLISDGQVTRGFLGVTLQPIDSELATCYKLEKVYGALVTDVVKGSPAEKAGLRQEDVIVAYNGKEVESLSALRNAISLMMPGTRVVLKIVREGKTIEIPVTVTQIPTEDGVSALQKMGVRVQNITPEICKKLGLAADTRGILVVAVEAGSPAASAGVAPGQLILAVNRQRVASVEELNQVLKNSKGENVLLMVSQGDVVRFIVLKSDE
Method: A series of peptide substrates were then designed based on the cleavage sites previously identified in ß-casein [3], PICS results, previously published substrates for E. coli DegP [22], and the REPLi library screening results. These peptides were assayed against CtHtrA and kinetic analysis was conducted (Table 2). […] Generally, peptides with only 4 residues or less were not cleaved. […] The preference for K at P3 implies a salt bridge may be involved in substrate coordination in the CtHtrA active site in the substrate pocket or subsite S3. In a direct comparison between MFRLI-pNA and MFQLI-pNA, R was clearly the most preferred. […] The Km for each of these, however, was at least an order of magnitude higher than the Km for MFKLI-pNa. The results from individually synthesised peptides (Table 2) and the peptides sourced from the REPLi library (Table 1) were consistent in that non-polar sequences are most preferred. […] (Fig. S3).
The purified recombinant protein was examined by Coomassie stained polyacrylamide gels and activity was checked using ß-casein cleavage assays prior to use in peptide assays. Briefly, this involved incubating 2 µg of the protease with 10 µg of ß-casein in 50 mM Tris pH 7.0, 20 mM MgCl2 for 2 h prior to examining the assays by SDS PAGE (ß-casein and protease only controls were always conducted). Protease assays using peptides were conducted using custom synthesised peptides (Mimotopes). The peptides were purified to 95% purity (or greater) and were typically resuspended in 50% isopropanol, although some peptides required 100% DMSO. Protease assays using pNA labelled peptides were conducted using the xMARK Microplate spectrophotometer (Bio-Rad) at 405 nm, incubated at 37°C, with a reading taken every 10 s for 30 min. The maximum slope over a minimum of 8 readings was used for the data analysis. Other peptides were labelled with 7-methoxycoumarin-4-acetic acid (MCA, fluorophore) and 2,4-dinitrophenyl (DNP, quencher). The protease assays using these peptides were conducted in black plates at 37°C using the POLARstar Optima (BMG Labtech). The assays were excited at 340 nm and emission was detected at 405 nm with a gain of 1000, the assays were monitored every 20 s or at the minimum cycle time for up to 40 min. The Omega software was used to calculate the maximum rate from a minimum of 6 time points for each assay. The REPLi library of peptides (Mimotopes, Melbourne, Australia) was also assayed with CtHtrA in the POLARstar Optima using similar assay conditions to those described above. Substrate only and protease only assay controls were conducted for every experiment and protease assays were typically conducted in triplicate on at least two different days. The assay results shown are the maximal rate observed from three or more different assays and adjusted for protein concentration. The assay results shown for the fluorescent compounds have been normalised for the amount of fluorescent emission detected using a standard curve of known concentrations of the MCA fluorophore under the identical assay conditions. All of the peptides used in this work were synthesised commercially to 95% purity or greater (Mimotopes, Melbourne, Australia). All protease assays were conducted minimally in duplicate on three separate occasions.

[2] = tested on: CtHtrA R373A/R299W; experiment: Oligomerisation assay, mutated protein; type: biochemical, Chlamydia trachomatis; conditions: R373A/R299W mutant, 10 mins incubation
From the text: This activation was very similar to that observed for CtHtrA, and was the only condition during which any of the mutated proteins oligomerised in a similar profile to CtHtrA.
The oligomerisation of HtrA into 12- and 24-mer complexes has been independently detected for E. coli HtrA (DegP). The oligomerisation of HtrA (DegP) was triggered by peptides from digested ß-casein [18]. Assays to detect whether CtHtrA and site directed mutant protein oligomerisation was triggered by substrates were conducted essentially as previously described (Merdanovic et al., 2010). Briefly, 2 mg/ml protein solutions in 100 mM sodium phosphate buffer pH 7.0 were pre-incubated to the required temperature. The ligands (activator peptide, or insulin) were added and at 10 min, and the proteins were fixed using 0.5% glutaraldehyde. Samples were fixed at room temperature for 2 min prior to addition of 1 M Tris pH 7.5 to remove any excess glutaraldehyde. Samples were incubated for another 10 min at room temperature prior to addition of SDS PAGE reducing loading buffer. The protein samples were examined on 3–8% TrisAcetate gradient polyacrylamide gels (Novex, Invitrogen) by silver staining. The proteins used in this study were not initially denatured by treatment with urea as, the refolding, formation of oligomers, and protease activity was never successfully detected with denatured CtHtrA. […]

[3] = tested on: CtHtrA R299W; experiment: Oligomerisation assay, mutated protein; type: biochemical, Chlamydia trachomatis; conditions: R299W mutant, 10 mins incubation
Method: (§1) E. coli DegP proteolysis activation involves the transition from resting hexamers via trimers to 12- and 24-mers following the peptide activator binding to the PDZ1 binding cleft. CtHtrA oligomer formation induced by Act1 addition was examined after incubation for 10 mins at 37°C. The wild type and mutant proteins were incubated with either the ß-casein based activator peptide (Act1), or with whole insulin (intact), or in the absence of any activator as a control. CtHtrA incubated in the absence of any added activators formed 24-mers with some hexamers detected after 10 mins (Fig. 5). […] The R299W mutant was present as hexamer and 24-mer in the control with no activator. […] The L302N mutant was not detected in any higher oligomeric form under any conditions. L302N was detected as faint hexamer and trimer but mostly monomer under all tested conditions (not visible on these gels). […] I365D was detected as hexamers, trimers, 12-mers, and some 24-mers when incubated in the absence of activators.
(§2) The oligomerisation of HtrA into 12- and 24-mer complexes has been independently detected for E. coli HtrA (DegP). The oligomerisation of HtrA (DegP) was triggered by peptides from digested ß-casein [18]. Assays to detect whether CtHtrA and site directed mutant protein oligomerisation was triggered by substrates were conducted essentially as previously described (Merdanovic et al., 2010). Briefly, 2 mg/ml protein solutions in 100 mM sodium phosphate buffer pH 7.0 were pre-incubated to the required temperature. The ligands (activator peptide, or insulin) were added and at 10 min, and the proteins were fixed using 0.5% glutaraldehyde. Samples were fixed at room temperature for 2 min prior to addition of 1 M Tris pH 7.5 to remove any excess glutaraldehyde. Samples were incubated for another 10 min at room temperature prior to addition of SDS PAGE reducing loading buffer. The protein samples were examined on 3–8% TrisAcetate gradient polyacrylamide gels (Novex, Invitrogen) by silver staining. The proteins used in this study were not initially denatured by treatment with urea as, the refolding, formation of oligomers, and protease activity was never successfully detected with denatured CtHtrA. All assays were conducted in duplicate on three separate occasions with at least two gels of each experiment completed for each assay condition.

[4] = tested on: CtHtrA R373A; experiment: Oligomerisation assay, mutated protein; type: biochemical, Chlamydia trachomatis; conditions: R373A mutant, 10 mins incubation
Method: as §1, §2

[5] = target: T1, CtHtrA; experiment: Oligomerisation assay (glutaraldehyde crosslinking, 3-8% TrisAcetate gel, silver stain); type: biochemical; conditions: wild type CtHtrA 2 mg/ml, 100 mM sodium phosphate pH 7.0, 10 mins at 37°C, 0.5% glutaraldehyde fixation
Method: as §1, §2

Substance: DMPFKLT-pNA [Model E. coli substrate, T at P1]
- Kcat/Km [1]: 158.7 M⁻¹ s⁻¹
- Km [1]: 940 µM
- Vmax [1]: 8.955 mM sec^−1, µM CtHtrA^−1

Substance: PMFKLI-pNA [pNA peptide substrate, 1 residue less]
- Kcat/Km [1]: 526.7 M⁻¹ s⁻¹
- Km [1]: 314 µM
- Vmax [1]: 9.931 mM sec^−1, µM CtHtrA^−1

Substance: MFQLI-pNA [pNA peptide substrate, P3 modification]
- Kcat/Km [1]: 21.2 M⁻¹ s⁻¹
- Km [1]: 141 µM
- Vmax [1]: 0.1796 mM sec^−1, µM CtHtrA^−1

Substance: DPMFKLV-pNA [previously published E. coli DegP substrate [22], reference compound]
- Kcat/Km [1]: 241.2 M⁻¹ s⁻¹
- Km [1]: 323 µM
- Vmax [1]: 4.678 mM sec^−1, µM CtHtrA^−1

Substance: DPMFKLL-pNA [Model E. coli substrate, L at P1]
- Km [1]: 883 µM
- Vmax [1]: 3.179 mM sec^−1, µM CtHtrA^−1

Substance: DPMFKQT-pNA [Model E. coli substrate, change P1 and P2]
- Kcat/Km [1]: 542.2 M⁻¹ s⁻¹
- Km [1]: 9.38 µM
- Vmax [1]: 0.3165 mM sec^−1, µM CtHtrA^−1

Substance: insulin: previously demonstrated in vitro chaperone substrate of CtHtrA [reference compound]
- oligomer formation induced by activator [2]: did not form a similar profile of oligomers as wild-type CtHtrA
- oligomer formation induced by activator [3]: mainly hexamer
- oligomer formation induced by activator [4]: mainly detected as hexamer
- CtHtrA oligomer formation induced by activator [5]: activated to 24-mers with little hexamer visible

Substance: DPMFKLP-pNA [Model E. coli substrate, P at P1]
- Km [1]: 3870 µM
- Vmax [1]: 2.917 mM sec^−1, µM CtHtrA^−1
